In US9302991B2, “Arylamide derivatives as TTX-S blockers” (RaQualia Pharma Inc., priority 2010, dated 2016):

Tests used:
[1] = molecular target: T1, human Nav1.3 channels (Homo sapiens, UniProt Q9NY46); assay: FRET assay, human Nav1.3 (EFS on FDSS); type: cell-based; details: HEK293 cells expressing human Nav1.3, read-out: IC50 against Nav1.3
T1 construct: expressed in transfected cells; host or cells: HEK293
Summary of the method: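 HEK293 cells expressing the channel, loaded with 10 microM CC2-DMPE then 15 microM DiSBAC2(3) plus 0.555 mM VABSC-1 in pH 7.4 HEPES buffer at room temperature. Membrane potential changes evoked by electrical field stimulation after compound addition; IC50 from 440 nm-normalized FRET ratios.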

[2] = molecular target: T2, human Nav1.7 channels (Homo sapiens, UniProt Q15858); assay: FRET assay, human Nav1.7 (EFS on FDSS); type: cell-based; details: CHO cells expressing human Nav1.7, read-out: IC50 against Nav1.7
T2 construct: expressed in transfected cells; host or cells: CHO
T2 sequence (Q15858 whole entry): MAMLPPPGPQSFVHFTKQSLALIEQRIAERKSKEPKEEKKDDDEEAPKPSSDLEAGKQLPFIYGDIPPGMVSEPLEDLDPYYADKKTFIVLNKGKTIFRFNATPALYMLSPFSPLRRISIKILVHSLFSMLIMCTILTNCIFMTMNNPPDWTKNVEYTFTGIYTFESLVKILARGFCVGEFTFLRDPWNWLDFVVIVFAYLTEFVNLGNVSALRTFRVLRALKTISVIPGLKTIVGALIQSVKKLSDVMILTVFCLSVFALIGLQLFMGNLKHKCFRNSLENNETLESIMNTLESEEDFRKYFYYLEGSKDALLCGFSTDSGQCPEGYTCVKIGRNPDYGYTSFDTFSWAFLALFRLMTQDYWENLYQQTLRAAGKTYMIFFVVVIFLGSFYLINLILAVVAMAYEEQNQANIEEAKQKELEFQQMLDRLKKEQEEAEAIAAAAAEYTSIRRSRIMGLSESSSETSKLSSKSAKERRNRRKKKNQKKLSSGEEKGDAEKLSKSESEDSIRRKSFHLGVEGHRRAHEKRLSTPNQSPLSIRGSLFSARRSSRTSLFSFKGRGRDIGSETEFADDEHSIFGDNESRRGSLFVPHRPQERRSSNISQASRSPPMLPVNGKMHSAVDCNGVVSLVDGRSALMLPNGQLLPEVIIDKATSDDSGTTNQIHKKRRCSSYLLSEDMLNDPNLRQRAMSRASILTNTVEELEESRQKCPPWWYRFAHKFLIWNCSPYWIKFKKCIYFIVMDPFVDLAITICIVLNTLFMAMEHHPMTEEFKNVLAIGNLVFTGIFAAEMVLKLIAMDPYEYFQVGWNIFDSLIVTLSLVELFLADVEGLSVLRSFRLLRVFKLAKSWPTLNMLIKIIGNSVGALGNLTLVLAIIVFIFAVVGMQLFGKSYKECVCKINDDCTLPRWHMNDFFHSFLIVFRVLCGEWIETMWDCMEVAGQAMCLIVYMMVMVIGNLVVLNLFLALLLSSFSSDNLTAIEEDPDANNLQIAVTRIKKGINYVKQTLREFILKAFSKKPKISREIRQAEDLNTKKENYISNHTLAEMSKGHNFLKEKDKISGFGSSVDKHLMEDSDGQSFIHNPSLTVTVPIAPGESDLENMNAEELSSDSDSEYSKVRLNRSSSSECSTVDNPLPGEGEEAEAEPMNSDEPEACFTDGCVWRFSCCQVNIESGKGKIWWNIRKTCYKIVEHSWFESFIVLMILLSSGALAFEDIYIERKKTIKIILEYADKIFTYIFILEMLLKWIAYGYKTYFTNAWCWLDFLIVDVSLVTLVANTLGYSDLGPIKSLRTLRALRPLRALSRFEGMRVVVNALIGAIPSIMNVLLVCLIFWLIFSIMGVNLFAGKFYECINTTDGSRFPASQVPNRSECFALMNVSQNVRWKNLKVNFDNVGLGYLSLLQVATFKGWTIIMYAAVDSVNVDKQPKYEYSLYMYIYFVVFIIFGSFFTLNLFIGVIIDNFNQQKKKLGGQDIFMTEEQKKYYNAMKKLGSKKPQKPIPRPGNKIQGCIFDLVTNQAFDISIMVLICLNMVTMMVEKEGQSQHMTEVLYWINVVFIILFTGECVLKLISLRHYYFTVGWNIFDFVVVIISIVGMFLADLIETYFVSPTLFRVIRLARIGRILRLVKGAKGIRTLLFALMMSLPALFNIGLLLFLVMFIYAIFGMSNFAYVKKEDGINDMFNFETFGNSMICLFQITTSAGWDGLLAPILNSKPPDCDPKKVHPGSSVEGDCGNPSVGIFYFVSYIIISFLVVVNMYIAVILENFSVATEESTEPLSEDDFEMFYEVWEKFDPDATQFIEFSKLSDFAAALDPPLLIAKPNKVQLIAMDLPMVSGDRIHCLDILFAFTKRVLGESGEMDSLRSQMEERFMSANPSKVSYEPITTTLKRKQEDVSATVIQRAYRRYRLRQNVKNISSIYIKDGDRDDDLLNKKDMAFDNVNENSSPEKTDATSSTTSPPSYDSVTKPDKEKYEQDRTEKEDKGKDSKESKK
Summary of the method: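 IC50 was derived from normalized 440 nm fluorescence ratios of the EFS-evoked membrane-potential response read on FDSS. Recombinant CHO cells were sequentially dye-loaded with coumarin/oxonol FRET pair at room temperature in pH 7.4 buffer before compound addition.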

T1 sequence (Q9NY46 whole entry): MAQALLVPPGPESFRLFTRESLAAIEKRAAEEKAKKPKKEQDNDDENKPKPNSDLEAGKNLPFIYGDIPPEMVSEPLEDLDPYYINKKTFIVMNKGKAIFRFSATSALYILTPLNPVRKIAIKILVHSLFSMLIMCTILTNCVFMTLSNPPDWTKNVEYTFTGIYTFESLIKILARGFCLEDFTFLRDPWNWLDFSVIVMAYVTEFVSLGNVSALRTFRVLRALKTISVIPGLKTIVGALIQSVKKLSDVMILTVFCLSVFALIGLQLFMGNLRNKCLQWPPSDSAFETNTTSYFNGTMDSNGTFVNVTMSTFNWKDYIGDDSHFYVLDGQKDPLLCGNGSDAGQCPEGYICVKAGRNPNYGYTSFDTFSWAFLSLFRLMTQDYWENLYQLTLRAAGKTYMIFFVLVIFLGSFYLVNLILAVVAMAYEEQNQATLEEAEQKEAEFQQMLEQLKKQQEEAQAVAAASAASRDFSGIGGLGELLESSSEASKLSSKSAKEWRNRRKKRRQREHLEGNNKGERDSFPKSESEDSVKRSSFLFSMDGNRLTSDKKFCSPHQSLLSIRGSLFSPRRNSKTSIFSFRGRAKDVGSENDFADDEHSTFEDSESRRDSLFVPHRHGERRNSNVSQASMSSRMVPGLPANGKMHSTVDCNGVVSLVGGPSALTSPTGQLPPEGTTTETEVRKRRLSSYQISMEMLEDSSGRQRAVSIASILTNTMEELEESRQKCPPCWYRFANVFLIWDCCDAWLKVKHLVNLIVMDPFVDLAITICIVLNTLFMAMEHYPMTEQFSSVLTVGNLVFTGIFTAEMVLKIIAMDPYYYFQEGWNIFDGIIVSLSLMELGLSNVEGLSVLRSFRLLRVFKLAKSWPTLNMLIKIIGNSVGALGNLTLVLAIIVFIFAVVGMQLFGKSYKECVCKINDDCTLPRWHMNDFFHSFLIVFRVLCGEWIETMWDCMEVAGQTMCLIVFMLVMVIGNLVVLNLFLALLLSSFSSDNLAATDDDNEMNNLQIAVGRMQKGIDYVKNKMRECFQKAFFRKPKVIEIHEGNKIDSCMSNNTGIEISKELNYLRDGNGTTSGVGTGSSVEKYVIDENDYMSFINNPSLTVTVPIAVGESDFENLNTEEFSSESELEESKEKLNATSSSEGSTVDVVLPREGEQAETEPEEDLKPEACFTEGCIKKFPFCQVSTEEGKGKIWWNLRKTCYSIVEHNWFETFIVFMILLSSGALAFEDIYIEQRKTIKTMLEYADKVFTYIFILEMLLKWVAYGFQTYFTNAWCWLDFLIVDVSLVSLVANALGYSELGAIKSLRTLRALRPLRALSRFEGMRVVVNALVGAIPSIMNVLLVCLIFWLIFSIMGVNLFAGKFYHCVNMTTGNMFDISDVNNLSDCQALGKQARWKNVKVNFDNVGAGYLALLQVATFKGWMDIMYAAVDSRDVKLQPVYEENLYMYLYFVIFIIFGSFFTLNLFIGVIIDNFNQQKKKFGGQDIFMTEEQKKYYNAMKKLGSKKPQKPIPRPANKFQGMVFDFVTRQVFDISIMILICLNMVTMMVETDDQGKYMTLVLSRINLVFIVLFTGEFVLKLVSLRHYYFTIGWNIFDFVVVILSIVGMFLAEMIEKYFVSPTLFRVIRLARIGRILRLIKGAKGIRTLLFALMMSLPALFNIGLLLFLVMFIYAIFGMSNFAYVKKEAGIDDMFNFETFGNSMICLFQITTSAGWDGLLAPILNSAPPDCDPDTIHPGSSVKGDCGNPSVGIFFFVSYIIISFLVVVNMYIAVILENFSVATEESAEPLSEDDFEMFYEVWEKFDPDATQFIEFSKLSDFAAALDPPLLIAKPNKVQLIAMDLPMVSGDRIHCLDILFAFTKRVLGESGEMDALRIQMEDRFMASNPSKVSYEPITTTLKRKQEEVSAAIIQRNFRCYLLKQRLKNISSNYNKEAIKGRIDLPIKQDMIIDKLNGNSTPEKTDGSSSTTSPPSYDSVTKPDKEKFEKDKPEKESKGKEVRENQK

Row | Compound | IC50 [1] | IC50 [2]
1 | CCC(=O)Nc1nc(C)cc(C(=O)NCc2ccc(OCC(F)(F)F)nc2OC)n1 [Example 180, N-((2-methoxy-6-(2,2,2-trifluoroethoxy)pyridin-3-yl)methyl)-6-methyl-2-propionamidopyrimidine-4-carboxamide] | < 1000 nM | < 1000 nM
2 | COc1nc(OCC(F)(F)F)ccc1CNC(=O)c1cc(C)nc(NC(C)=O)c1 [Example 241, 2-acetamido-N-((2-methoxy-6-(2,2,2-trifluoroethoxy)pyridin-3-yl)methyl)-6-methylisonicotinamide] | < 1000 nM | < 1000 nM
3 | CCOc1nc(OCC(F)(F)F)ccc1CNC(=O)c1cc(C)nc(NC(=O)CC)n1 [Example 359, N-((2-ethoxy-6-(2,2,2-trifluoroethoxy)pyridin-3-yl)methyl)-6-methyl-2-propionamidopyrimidine-4-carboxamide] | < 1000 nM | < 1000 nM
4 | CCOc1nc(OCC(F)(F)F)ccc1CNC(=O)c1cc(C)nc(NC(=O)C(C)C)n1 [Example 360, N-((2-ethoxy-6-(2,2,2-trifluoroethoxy)pyridin-3-yl)methyl)-2-isobutyramido-6-methylpyrimidine-4-carboxamide] | < 1000 nM | < 1000 nM
5 | CC(=O)Nc1nc(C)cc(C(=O)NCc2cnc(OCC(F)(F)F)c(C)c2)n1 [Example 363, 2-acetamido-6-methyl-N-((5-methyl-6-(2,2,2-trifluoroethoxy)pyridin-3-yl)methyl)pyrimidine-4-carboxamide] | < 1000 nM | < 1000 nM
6 | CCC(=O)Nc1nc(C)cc(C(=O)NCc2cnc(OCC(F)(F)F)c(C)c2)n1 [Example 364, 6-methyl-N-((5-methyl-6-(2,2,2-trifluoroethoxy)pyridin-3-yl)methyl)-2-propionamidopyrimidine-4-carboxamide] | < 1000 nM | < 1000 nM
7 | CCC(=O)Nc1cc(C(=O)NCc2cnc(OCC(F)(F)F)c(C)c2)ccn1 [Example 368, N-((5-methyl-6-(2,2,2-trifluoroethoxy)pyridin-3-yl)methyl)-2-propionamidoisonicotinamide] | < 1000 nM | < 1000 nM
8 | Cc1cc(CNC(=O)c2ccnc(NC(=O)C3CC3)c2)cnc1OCC(F)(F)F [Example 369, 2-(cyclopropanecarboxamido)-N-((5-methyl-6-(2,2,2-trifluoroethoxy)pyridin-3-yl)methyl)isonicotinamide] | < 1000 nM | < 1000 nM
9 | CC(=O)Nc1cc(C(=O)NCc2cnc(OCC(F)(F)F)c(C)c2)cc(C)n1 [Example 371, 2-acetamido-6-methyl-N-((5-methyl-6-(2,2,2-trifluoroethoxy)pyridin-3-yl)methyl)isonicotinamide] | < 1000 nM | < 1000 nM
10 | CCC(=O)Nc1cc(C(=O)NCc2cnc(OCC(F)(F)F)c(C)c2)cc(C)n1 [Example 372, 2-methyl-N-((5-methyl-6-(2,2,2-trifluoroethoxy)pyridin-3-yl)methyl)-6-propionamidoisonicotinamide] | < 1000 nM | < 1000 nM
11 | CCC(=O)Nc1nccc(C(=O)NCc2cnc(OCC(F)(F)F)c(Cl)c2)n1 [Example 410, N-((5-chloro-6-(2,2,2-trifluoroethoxy)pyridin-3-yl)methyl)-2-propionamidopyrimidine-4-carboxamide] | < 1000 nM | < 1000 nM
12 | O=C(NCc1cnc(OCC(F)(F)F)c(Cl)c1)c1ccnc(NC(=O)C2CC2)n1 [Example 411, N-((5-chloro-6-(2,2,2-trifluoroethoxy)pyridin-3-yl)methyl)-2-(cyclopropanecarboxamido)pyrimidine-4-carboxamide] | < 1000 nM | < 1000 nM
13 | COc1cc(CNC(=O)c2cc(C)nc(NC(=O)C(C)C)n2)cnc1OCC(F)(F)F [Example 443, 2-isobutyramido-N-((5-methoxy-6-(2,2,2-trifluoroethoxy)pyridin-3-yl)methyl)-6-methylpyrimidine-4-carboxamide] | < 1000 nM | < 1000 nM
14 | CCC(=O)Nc1cc(C(=O)NCc2cccc(OCC(F)(F)F)n2)cc(C)n1 [Example 467, 2-methyl-6-propionamido-N-((6-(2,2,2-trifluoroethoxy)pyridin-2-yl)methyl)isonicotinamide] | < 1000 nM | < 1000 nM
15 | Cc1cc(C(=O)NCc2ccc(OCC(F)(F)F)nc2)cc(NC(=O)C(C)C)n1 [Example 483, 2-isobutyramido-6-methyl-N-((6-(2,2,2-trifluoroethoxy)pyridin-3-yl)methyl)isonicotinamide] | < 1000 nM | < 1000 nM
16 | COc1cc(CNC(=O)c2cc(C)nc(NC(=O)C(C)C)c2)cnc1OCC(F)(F)F [Example 492, 2-isobutyramido-N-((5-methoxy-6-(2,2,2-trifluoroethoxy)pyridin-3-yl)methyl)-6-methylisonicotinamide] | < 1000 nM | < 1000 nM
17 | COc1nc(OCC(F)(F)F)ccc1CNC(=O)c1cc(C)nc(NC(=O)C(C)C)c1 [Example 494, 2-isobutyramido-N-((2-methoxy-6-(2,2,2-trifluoroethoxy)pyridin-3-yl)methyl)-6-methylisonicotinamide] | < 1000 nM | < 1000 nM

Row | Compound | IC50 [1] | IC50 [2]
18 | CCC(=O)Nc1cc(C(=O)NCc2cccc(OC(F)(F)F)c2)ccn1 [Example 523, 2-propionamido-N-(3-(trifluoromethoxy)benzyl)isonicotinamide] | < 1000 nM | < 1000 nM
19 | O=C(NCc1cccc(OC(F)(F)F)c1)c1ccnc(NC(=O)C2CC2)c1 [Example 524, 2-(cyclopropanecarboxamido)-N-(3-(trifluoromethoxy)benzyl)isonicotinamide] | < 1000 nM | < 1000 nM
20 | CC(=O)Nc1cc(C(=O)NCc2cccc(OC(F)(F)F)c2)cc(C)n1 [Example 525, 2-acetamido-6-methyl-N-(3-(trifluoromethoxy)benzyl)isonicotinamide] | < 1000 nM | < 1000 nM
21 | CCC(=O)Nc1cc(C(=O)NCc2cccc(OC(F)(F)F)c2)cc(C)n1 [Example 526, 2-methyl-6-propionamido-N-(3-(trifluoromethoxy)benzyl)isonicotinamide] | < 1000 nM | < 1000 nM
22 | CC(C)C(=O)Nc1cc(C(=O)NCc2cccc(OC(F)(F)F)c2)ccn1 [Example 527, 2-isobutyramido-N-(3-(trifluoromethoxy)benzyl)isonicotinamide] | < 1000 nM | < 1000 nM
23 | Cc1cc(C(=O)NCc2cccc(OC(F)(F)F)c2)cc(NC(=O)C(C)C)n1 [Example 528, 2-isobutyramido-6-methyl-N-(3-(trifluoromethoxy)benzyl)isonicotinamide] | < 1000 nM | < 1000 nM
24 | CC(C)C(=O)Nc1cc(C(=O)NCc2cccc(C(F)(F)F)c2)ccn1 [Example 533, 2-isobutyramido-N-(3-(trifluoromethyl)benzyl)isonicotinamide] | < 1000 nM | < 1000 nM
25 | Cc1cc(C(=O)NCc2cccc(C(F)(F)F)c2)cc(NC(=O)C(C)C)n1 [Example 534, 2-isobutyramido-6-methyl-N-(3-(trifluoromethyl)benzyl)isonicotinamide] | < 1000 nM | < 1000 nM
26 | Cc1cc(CNC(=O)c2ccnc(NC(=O)C3CC3)n2)cnc1OCC(F)(F)F [Example 564, 2-(cyclopropanecarboxamido)-N-((5-methyl-6-(2,2,2-trifluoroethoxy)pyridin-3-yl)methyl)pyrimidine-4-carboxamide] | < 1000 nM | < 1000 nM
27 | CC(=O)Nc1cc(C(=O)NCc2cc(C)cc(OC(F)(F)F)c2)ccn1 [Example 597, 2-acetamido-N-(3-methyl-5-(trifluoromethoxy)benzyl)isonicotinamide] | < 1000 nM | < 1000 nM
28 | CCC(=O)Nc1cc(C(=O)NCc2cc(C)cc(OC(F)(F)F)c2)cc(C)n1 [Example 600, 2-methyl-N-(3-methyl-5-(trifluoromethoxy)benzyl)-6-propionamidoisonicotinamide] | < 1000 nM | < 1000 nM
29 | CC(=O)Nc1cc(C(=O)NCc2cc(C)cc(OC(F)(F)F)c2)cc(C)n1 [Example 602, 2-acetamido-6-methyl-N-(3-methyl-5-(trifluoromethoxy)benzyl)isonicotinamide] | < 1000 nM | < 1000 nM
30 | CCC(=O)Nc1cc(C(=O)NCc2ccc(OCC(F)(F)C(F)(F)F)nc2)cc(C)n1 [Example 643, 2-methyl-N-((6-(2,2,3,3,3-pentafluoropropoxy)pyridin-3-yl)methyl)-6-propionamidoisonicotinamide] | < 1000 nM | < 1000 nM
31 | O=C(NCc1cnc(OCC(F)F)c(Cl)c1)c1ccnc(NC(=O)C2CC2)n1 [Example 707, N-((5-chloro-6-(2,2-difluoroethoxy)pyridin-3-yl)methyl)-2-(cyclopropanecarboxamido)pyrimidine-4-carboxamide] | < 1000 nM | < 1000 nM
32 | CC(=O)Nc1cc(C(=O)NCc2cccc(OC(F)(F)F)c2F)cc(C)n1 [Example 751, 2-acetamido-N-(2-fluoro-3-(trifluoromethoxy)benzyl)-6-methylisonicotinamide] | < 1000 nM | < 1000 nM
33 | CCCC(=O)Nc1cc(C(=O)NCc2cnc(OCC(F)F)c(C)c2)ccn1 [Example 757, 2-butyramido-N-((6-(2,2-difluoroethoxy)-5-methylpyridin-3-yl)methyl)isonicotinamide] | < 1000 nM | < 1000 nM
34 | CC(=O)Nc1cc(C(=O)NCc2cnc(OCC(F)(F)F)c(Br)c2)ccn1 [Example 762, 2-acetamido-N-((5-bromo-6-(2,2,2-trifluoroethoxy)pyridin-3-yl)methyl)isonicotinamide] | < 1000 nM | < 1000 nM
